# Assay results from patent publication US9849130B2 (KamTek, Inc., priority 2014, dated 2017).
# Read-outs that look alike come from different tables or passages of the source.
# Legend:
# Enterococci faecium = assay: MIC by microdilution in Mueller-Hinton broth against Enterococci faecium strains; assay type: cell-based, Enterococcus faecium; conditions: Enterococcus faecium, Mueller-Hinton broth, read-out: MIC
# [1] = tested on: Staphylococcus aureus strains; assay: MIC by microdilution in Mueller-Hinton broth against Staphylococcus aureus strains; assay type: cell-based; conditions: Staphylococcus aureus
# Enterococcus faecalis = assay: MIC by microdilution in Mueller-Hinton broth against Enterococcus faecalis strains; assay type: cell-based; conditions: Enterococcus faecalis
# Escherichia coli strains = assay: MIC by microdilution in Mueller-Hinton broth against Escherichia coli strains; assay type: cell-based; conditions: for MIC: Escherichia coli, Mueller-Hinton broth, read-out: MIC
# Bacteroides Strains = assay: MIC by microdilution in Brucella broth against Bacteroides strains; assay type: cell-based, Bacteroides spp.
# [2] = tested on: Clostridium difficile (CD) strains; assay: microbe, parasite or virus in culture; assay type: cell-based
# [3] = S. aureus NR 10129, read-out: MIC
# [4] = S. aureus NR 10186, read-out: MIC
# [5] = S. aureus NR 10187, read-out: MIC
# [6] = S. aureus NR 10188, read-out: MIC
# [7] = S. aureus NR 10189, read-out: MIC
# [8] = S. aureus NR 10191, read-out: MIC
# [9] = S. aureus NR 10192, read-out: MIC
# [10] = S. aureus NR 10193, read-out: MIC
# [11] = S. aureus NR 10194, read-out: MIC
# [12] = S. aureus NR 10198, read-out: MIC
# [13] = E. faecalis NR 31884, read-out: MIC
# [14] = E. faecalis NR 31885, read-out: MIC
# [15] = E. faecalis NR 31886, read-out: MIC
# [16] = E. faecalis NR 31887, read-out: MIC
# [17] = E. faecalis NR 31888, read-out: MIC
compound,measurement,setting,value
"NCC[C@H](O)C(=O)N[C@@H]1C[C@H](N)[C@@H](O[C@H]2O[C@H](CN)[C@@H](O)[C@H](O)[C@H]2O)[C@H](O)[C@H]1O[C@H]1O[C@H](CO)[C@@H](O)[C@H](N)[C@H]1O [AMK, amikacin]",MIC,Enterococci faecium; E. faecium NR 31903,> 32 µg/mL
same,MIC,Enterococci faecium; E. faecium NR 31909,> 32 µg/mL
same,MIC,Enterococci faecium; E. faecium NR 31912,> 32 µg/mL
same,MIC,Enterococci faecium; E. faecium NR 31915,> 32 µg/mL
same,MIC,Enterococci faecium; E. faecium NR 31916,> 32 µg/mL
same,MIC,[1]; [3],2 µg/mL
same,MIC,[1]; [4],32 µg/mL
same,MIC,[1]; [5],> 32 µg/mL
same,MIC,[1]; [6],> 32 µg/mL
same,MIC,[1]; [7],4 µg/mL
same,MIC,[1]; [8],32 µg/mL
same,MIC,[1]; [9],> 32 µg/mL
same,MIC,[1]; [10],> 32 µg/mL
same,MIC,[1]; [11],32 µg/mL
same,MIC,[1]; [12],> 32 µg/mL
same,MIC,"[1]; Staphylococcus aureus strain NR 10129, read-out: MIC",2 µg/mL
same,MIC,"[1]; Staphylococcus aureus strain NR 10186, read-out: MIC",32 µg/mL
same,MIC,"[1]; Staphylococcus aureus strain NR 10187, read-out: MIC",> 32 µg/mL
same,MIC,"[1]; Staphylococcus aureus strain NR 10188, read-out: MIC",> 32 µg/mL
same,MIC,"[1]; Staphylococcus aureus strain NR 10189, read-out: MIC",4 µg/mL
same,MIC,"[1]; Staphylococcus aureus strain NR 10191, read-out: MIC",32 µg/mL
same,MIC,"[1]; Staphylococcus aureus strain NR 10192, read-out: MIC",> 32 µg/mL
same,MIC,"[1]; Staphylococcus aureus strain NR 10193, read-out: MIC",> 32 µg/mL
same,MIC,"[1]; Staphylococcus aureus strain NR 10194, read-out: MIC",32 µg/mL
same,MIC,"[1]; Staphylococcus aureus strain NR 10198, read-out: MIC",> 32 µg/mL
same,MIC,Enterococcus faecalis; [13],> 32 µg/mL
same,MIC,Enterococcus faecalis; [14],> 32 µg/mL
same,MIC,Enterococcus faecalis; [15],> 32 µg/mL
same,MIC,Enterococcus faecalis; [16],> 32 µg/mL
same,MIC,Enterococcus faecalis; [17],> 32 µg/mL
same,MIC,Escherichia coli strains; E. coli NR 6,4 µg/mL
same,MIC,Escherichia coli strains; E. coli NR 8,4 µg/mL
same,MIC,Escherichia coli strains; E. coli NR 96,8 µg/mL
same,MIC,Escherichia coli strains; E. coli NR 104,2 µg/mL
same,MIC,Escherichia coli strains; E. coli NR 17626,16 µg/mL
same,MIC,Escherichia coli strains; E. coli NR 17627,8 µg/mL
same,MIC,Escherichia coli strains; E. coli NR 17633,8 µg/mL
same,MIC,Escherichia coli strains; E. coli NR 17647,2 µg/mL
same,MIC,Escherichia coli strains; E. coli NR 17650,8 µg/mL
same,MIC,Escherichia coli strains; E. coli NR 17661,2 µg/mL
same,MIC,Escherichia coli strains; Escherichia coli strain NR 6,4 µg/mL
same,MIC,Escherichia coli strains; Escherichia coli strain NR 8,4 µg/mL
same,MIC,Escherichia coli strains; Escherichia coli strain NR 96,8 µg/mL
same,MIC,Escherichia coli strains; Escherichia coli strain NR 104,2 µg/mL
same,MIC,Escherichia coli strains; Escherichia coli strain NR 17626,16 µg/mL
same,MIC,Escherichia coli strains; Escherichia coli strain NR 17627,8 µg/mL
same,MIC,Escherichia coli strains; Escherichia coli strain NR 17633,8 µg/mL
same,MIC,Escherichia coli strains; Escherichia coli strain NR 17647,2 µg/mL
same,MIC,Escherichia coli strains; Escherichia coli strain NR 17650,8 µg/mL
same,MIC,Escherichia coli strains; Escherichia coli strain NR 17661,2 µg/mL
"O=C1C(NC2CCCCCCC2)=CC(=O)c2ncccc21 [AZQ, 6-(cyclooctylamino)-5,8-quinolinequinone]",MIC,"Bacteroides Strains; B. caccae HM728, read-out: MIC",2 µg/mL
same,MIC,"Bacteroides Strains; B. eggerthii HM210, read-out: MIC",2 µg/mL
same,MIC,"Bacteroides Strains; B. fragilis HM709, read-out: MIC",2 µg/mL
same,MIC,"Bacteroides Strains; B. fragilis HM710, read-out: MIC",2 µg/mL
same,MIC,"Bacteroides Strains; B. fragilis HM714, read-out: MIC",2 µg/mL
same,MIC,"Bacteroides Strains; B. ovatus HM222, read-out: MIC",1 µg/mL
same,MIC,"Bacteroides Strains; B. stercoris HM1036, read-out: MIC",2 µg/mL
same,MIC,"Bacteroides Strains; Bacteroides, B. spp. HM19",4 µg/mL
same,MIC,"Bacteroides Strains; Bacteroides, B. spp. HM23, read-out: MIC",2 µg/mL
same,MIC,"Bacteroides Strains; Bacteroides, B. spp. HM27",1 µg/mL
same,MIC,"Bacteroides Strains; Bacteroides, B. spp. HM58",4 µg/mL
same,MIC,Enterococci faecium; E. faecium NR 31903,> 32 µg/mL
same,MIC,Enterococci faecium; E. faecium NR 31909,32 µg/mL
same,MIC,Enterococci faecium; E. faecium NR 31912,32 µg/mL
same,MIC,Enterococci faecium; E. faecium NR 31915,> 32 µg/mL
same,MIC,Enterococci faecium; E. faecium NR 31916,16 µg/mL
same,MIC,[1]; [3],32 µg/mL
same,MIC,[1]; [4],16 µg/mL
same,MIC,[1]; [5],> 32 µg/mL
same,MIC,[1]; [6],32 µg/mL
same,MIC,[1]; [7],16 µg/mL
same,MIC,[1]; [8],8 µg/mL
same,MIC,[1]; [9],32 µg/mL
same,MIC,[1]; [10],16 µg/mL
same,MIC,[1]; [11],16 µg/mL
same,MIC,[1]; [12],16 µg/mL
same,MIC,Enterococcus faecalis; [13],32 µg/mL
same,MIC,Enterococcus faecalis; [14],32 µg/mL
same,MIC,Enterococcus faecalis; [15],32 µg/mL
same,MIC,Enterococcus faecalis; [16],16 µg/mL
same,MIC,Enterococcus faecalis; [17],32 µg/mL
same,activity against E. coli (in words),Escherichia coli strains,no activity
same,MIC,Escherichia coli strains; E. coli NR 6,> 32 µg/mL
same,MIC,Escherichia coli strains; E. coli NR 8,> 32 µg/mL
same,MIC,Escherichia coli strains; E. coli NR 96,> 32 µg/mL
same,MIC,Escherichia coli strains; E. coli NR 104,> 32 µg/mL
same,MIC,Escherichia coli strains; E. coli NR 17626,> 32 µg/mL
same,MIC,Escherichia coli strains; E. coli NR 17627,> 32 µg/mL
same,MIC,Escherichia coli strains; E. coli NR 17633,> 32 µg/mL
same,MIC,Escherichia coli strains; E. coli NR 17647,> 32 µg/mL
same,MIC,Escherichia coli strains; E. coli NR 17650,> 32 µg/mL
same,MIC,Escherichia coli strains; E. coli NR 17661,> 32 µg/mL
same,MIC Range,[2],0.25 to 1 µg/mL
same,MIC90,[2]; Clostridioides difficile,1 µg/mL
